# Columns and labels:
# [1] = test system: macrophage Cd68 and myeloid Cd11b; assay: qPCR of retrieved tumors: immune markers; format: in vivo, BALB/c mice; details: crystal treatment groups
# [2] = test system: alpha Smooth Muscle actin (aSMact); assay: immunofluorescent staining of tumors: aSMact; format: in vivo, BALB/c mice; details: single SC injection of 3 mg or 10 mg crystals, compared to daily bolus
# Description: To confirm the effects seen at the level of RNA, immunofluorescent staining of excised tumor samples that were in parallel fixed with paraformaldehyde and embedded in paraffin was performed. […] Co-localization of CD31 with aSMact was, as expected, not linked in crystal sorafenib-treated tumors, where CD31 reduction was more extensive than with daily, bolus sorafenib.
# Immunofluorescence imaging was used to determine anti-angiogenic drug efficacy. Tumor tissues were retrieved from mice and fixed overnight using 4% paraformaldehyde at 4° C. After fixation, retrieved tissue samples were moved to 70% ethanol. Samples were then processed for paraffin embedding, sectioning and staining. […] Next, tissues were incubated for 1 hour in an immunostaining cocktail solution consisting of NucBlue (Thermo), specific marker probes (1:200 dilution) anti-CD31 (Cat#DIA-310, HistoBioTec) and anti-alphaSmoothMuscle actin-Cy3 (Sigma) in Dako staining buffer. For CD31, a goat anti-rat alexa-fluor647 secondary antibody was also used (1:400). After staining, samples were rinsed again with 1X PBS three times prior to slides being cover slipped with Pro-long anti-fade Gold (Thermo). […] For stain quantification, images were converted into 8-bit image files, a background threshold was determined using NIH ImageJ, and then all images were processed using an NIH ImageJ macro to quantify the area of positive stain. […]
# [3] = test system: choroidal neovascularization (CNV); assay: mouse laser-induced CNV model, fundus fluorescein angiography; format: in vivo; details: two intravitreal doses (14 days before and 1 day after laser) vs saline; p=0.0290 single lesion analysis
# Excerpt: Wet age-related macular degeneration (wet AMD) is a leading cause of blindness in the U.S. and globally, requiring effective treatments, particularly with the use of drugs or treatments that allow sustained management of the disease. Choroidal neovascularization (CNV), or pathologic angiogenesis, is the cause of the visual loss that occurs in wet AMD. Therefore, sorafenib is also a possible treatment for wet AMD, but the effect of the drug when delivered in a liquid form is brief. It has been shown that optimized crystal formulations of sorafenib providing sustained release have the potential to work over a longer period of time. As shown herein, the experiments tested the effect of intravitreal administration of crystal sorafenib vs. vehicle, in saline, of sorafenib in a mouse laser-induced CNV model. FIG. 5 depicts a timeline of an experimental procedure, in accordance with the present disclosure. Crystalline sorafenib, as described herein, was administered to two batches of mice. In the first batch of mice, 16 mice were injected, 14 days before a laser treatment and 1 day after laser treatment. In the second batch of mice, 13 mice were injected 7 days before laser treatment. FIGS. 6A-6D depict charts of fluorescent intensity as measured with the use of fundus fluorescein angiography (FFA), according to the present disclosure. […]
# [4] = test system: endothelial cell marker Cd31; assay: qPCR of retrieved tumors: Cd31; format: in vivo, BALB/c mice; details: crystals, compared to daily liquid bolus drug treatment; tumors at end of study
# Description: To determine the anti-angiogenic efficacy of each sorafenib treatment group, qPCR gene expression analysis was performed on retrieved tumors at the conclusion of the study. In particular, analysis for levels of endothelial cell marker Cd31, vascular endothelial-cadherin (VE-Cdh), smooth muscle pericyte marker alpha Smooth Muscle actin (aSMact), and stem/progenitor cell marker Cd34 were conducted, as shown in FIG. 3F.
# 1 mL of TRIzol reagent (Cat#15596018, ThermoFisher) was added to 100 mg samples of tumor tissue and broken down with a power homogenizer (Polytron/VWR). Homogenized samples were incubated at room temperature for 5 min for complete nucleoprotein dissociation, then 0.2 ml of chloroform (Sigma) was added to each sample. Samples were shaken vigorously for 15 seconds and incubated at room temperature for 3 min before centrifuging at 12,000 g for 15 min at 4° C. The uppermost supernatant layer was pipetted into a 1.7 mL Eppendorf tube, with the remaining interphase and organic layer discarded. 0.5 mL of isopropanol (Sigma) was added to each sample, and then samples were incubated for 10 min. Samples were centrifuged at 12,000 g for 10 min at 4° C. […] Depending on size of resultant pellet, pellets were resuspended in 50-100 μL, and nucleic acid concentration was measured using a NanoDrop 2000 spectrophotometer (ThermoFisher). […]
structure (smiles),measurement,setting,value
"CNC(=O)c1cc(Oc2ccc(NC(=O)Nc3ccc(Cl)c(C(F)(F)F)c3)cc2)ccn1 [crystalline sorafenib, sorafenib]",Cd68 and Cd11b expression levels (qPCR),[1],no significant changes
same,tumor aSMact levels (immunofluorescence),[2],reduction is less significant
same,CNV (FFA fluorescent intensity),[3],appears to reduce CNV
same,endothelial cell Cd31 expression levels (qPCR),[4],more effectively reduced

# Source: patent publication US20240366577A1, “CONTROLLED LONG-TERM DRUG DELIVERY AND METHODS THEREOF” (THE JOHNS HOPKINS UNIVERSITY, priority 2021, published 2024)
